Measured values as given in US10906873B2, “Substituted cyclic amides as herbicides” (FMC Corporation, priority 2015, dated 2021).

Test system: barnyardgrass (Echinochloa crus-galli)
Experiment: Test A preemergence, barnyardgrass
Type: in vivo
Settings: 125 g ai/ha, 0 to 100 scale
Summary of the method: (§1)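 Pre: seeds planted in loam/sand, directed soil spray. Post: 2–10 cm plants, 1–2 leaf. Formulation: non-phytotoxic solvent + surfactant. Greenhouse ~10 d; visual injury vs untreated, 0 = no effect, 100 = complete control.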

SMILES | Plant response rating, Barnyardgrass
O=C1NCC(/C=C/c2cccc(F)c2)C1C(=O)Nc1cccc(F)c1F (stereo not drawn) [Compound 30] | 50

Same assay, conditions: 500 g ai/ha, 0 to 100 scale

SMILES | Plant response rating, Barnyardgrass
O=C1NCC(/C=C/c2cccc(F)c2)C1C(=O)Nc1cccc(F)c1F (stereo not drawn) [Compound 30] | 90

Test system: kochia (Kochia scoparia)
Experiment: Test A preemergence, kochia
Type: in vivo
Settings: 125 g ai/ha, 0 to 100 scale
Summary of the method: as §1

SMILES | Plant response rating, Kochia
O=C1NCC(/C=C/c2cccc(F)c2)C1C(=O)Nc1cccc(F)c1F (stereo not drawn) [Compound 30] | 70

Same assay, conditions: 500 g ai/ha, 0 to 100 scale

SMILES | Plant response rating, Kochia
O=C1NCC(/C=C/c2cccc(F)c2)C1C(=O)Nc1cccc(F)c1F (stereo not drawn) [Compound 30] | 80

Test system: ragweed (common ragweed, Ambrosia elatior)
Experiment: Test A preemergence, ragweed
Type: in vivo
Settings: 125 g ai/ha, 0 to 100 scale
Summary of the method: as §1

SMILES | Plant response rating, Ragweed
O=C1NCC(/C=C/c2cccc(F)c2)C1C(=O)Nc1cccc(F)c1F (stereo not drawn) [Compound 30] | 0

Same assay, conditions: 500 g ai/ha, 0 to 100 scale

SMILES | Plant response rating, Ragweed
O=C1NCC(/C=C/c2cccc(F)c2)C1C(=O)Nc1cccc(F)c1F (stereo not drawn) [Compound 30] | 0

Test system: ryegrass, It. (Italian ryegrass, Lolium multiflorum)
Experiment: Test A preemergence, ryegrass, It.
Type: in vivo
Settings: 125 g ai/ha, 0 to 100 scale
Summary of the method: as §1

SMILES | Plant response rating, Ryegrass, It.
O=C1NCC(/C=C/c2cccc(F)c2)C1C(=O)Nc1cccc(F)c1F (stereo not drawn) [Compound 30] | 0

Same assay, conditions: 500 g ai/ha, 0 to 100 scale

SMILES | Plant response rating, Ryegrass, It.
O=C1NCC(/C=C/c2cccc(F)c2)C1C(=O)Nc1cccc(F)c1F (stereo not drawn) [Compound 30] | 0

Test system: foxtail, giant (giant foxtail, Setaria faberii)
Experiment: Test A preemergence, foxtail, giant
Type: in vivo
Settings: 125 g ai/ha, 0 to 100 scale
Summary of the method: as §1

SMILES | Plant response rating, Foxtail, Giant
O=C1NCC(/C=C/c2cccc(F)c2)C1C(=O)Nc1cccc(F)c1F (stereo not drawn) [Compound 30] | 60

Same assay, conditions: 500 g ai/ha, 0 to 100 scale

SMILES | Plant response rating, Foxtail, Giant
O=C1NCC(/C=C/c2cccc(F)c2)C1C(=O)Nc1cccc(F)c1F (stereo not drawn) [Compound 30] | 90

Test system: pigweed (Amaranthus retroflexus)
Experiment: Test A preemergence, pigweed
Type: in vivo
Settings: 125 g ai/ha, 0 to 100 scale
Summary of the method: as §1

SMILES | Plant response rating, Pigweed
O=C1NCC(/C=C/c2cccc(F)c2)C1C(=O)Nc1cccc(F)c1F (stereo not drawn) [Compound 30] | 0

Same assay, conditions: 500 g ai/ha, 0 to 100 scale

SMILES | Plant response rating, Pigweed
O=C1NCC(/C=C/c2cccc(F)c2)C1C(=O)Nc1cccc(F)c1F (stereo not drawn) [Compound 30] | 0

Test system: barnyardgrass (Echinochloa crus-galli)
Experiment: Test A postemergence, barnyardgrass
Type: in vivo
Settings: 125 g ai/ha, 0 to 100 scale
Summary of the method: as §1

SMILES | Plant response rating, Barnyardgrass
O=C1NCC(/C=C/c2cccc(F)c2)C1C(=O)Nc1cccc(F)c1F (stereo not drawn) [Compound 30] | 50

Same assay, conditions: 500 g ai/ha, 0 to 100 scale

SMILES | Plant response rating, Barnyardgrass
O=C1NCC(/C=C/c2cccc(F)c2)C1C(=O)Nc1cccc(F)c1F (stereo not drawn) [Compound 30] | 80

Test system: kochia (Kochia scoparia)
Experiment: Test A postemergence, kochia
Type: in vivo
Settings: 125 g ai/ha, 0 to 100 scale
Summary of the method: as §1

SMILES | Plant response rating, Kochia
O=C1NCC(/C=C/c2cccc(F)c2)C1C(=O)Nc1cccc(F)c1F (stereo not drawn) [Compound 30] | 0

Same assay, conditions: 500 g ai/ha, 0 to 100 scale

SMILES | Plant response rating, Kochia
O=C1NCC(/C=C/c2cccc(F)c2)C1C(=O)Nc1cccc(F)c1F (stereo not drawn) [Compound 30] | 0

Test system: ragweed (common ragweed, Ambrosia elatior)
Experiment: Test A postemergence, ragweed
Type: in vivo
Settings: 125 g ai/ha, 0 to 100 scale
Summary of the method: as §1

SMILES | Plant response rating, Ragweed
O=C1NCC(/C=C/c2cccc(F)c2)C1C(=O)Nc1cccc(F)c1F (stereo not drawn) [Compound 30] | 0

Same assay, conditions: 500 g ai/ha, 0 to 100 scale

SMILES | Plant response rating, Ragweed
O=C1NCC(/C=C/c2cccc(F)c2)C1C(=O)Nc1cccc(F)c1F (stereo not drawn) [Compound 30] | 0

Test system: ryegrass, It. (Italian ryegrass, Lolium multiflorum)
Experiment: Test A postemergence, ryegrass, It.
Type: in vivo
Settings: 125 g ai/ha, 0 to 100 scale
Summary of the method: as §1

SMILES | Plant response rating, Ryegrass, It.
O=C1NCC(/C=C/c2cccc(F)c2)C1C(=O)Nc1cccc(F)c1F (stereo not drawn) [Compound 30] | 0

Same assay, conditions: 500 g ai/ha, 0 to 100 scale

SMILES | Plant response rating, Ryegrass, It.
O=C1NCC(/C=C/c2cccc(F)c2)C1C(=O)Nc1cccc(F)c1F (stereo not drawn) [Compound 30] | 0

Test system: foxtail, giant (giant foxtail, Setaria faberii)
Experiment: Test A postemergence, foxtail, giant
Type: in vivo
Settings: 125 g ai/ha, 0 to 100 scale
Summary of the method: as §1

SMILES | Plant response rating, Foxtail, Giant
O=C1NCC(/C=C/c2cccc(F)c2)C1C(=O)Nc1cccc(F)c1F (stereo not drawn) [Compound 30] | 40

Same assay, conditions: 500 g ai/ha, 0 to 100 scale

SMILES | Plant response rating, Foxtail, Giant
O=C1NCC(/C=C/c2cccc(F)c2)C1C(=O)Nc1cccc(F)c1F (stereo not drawn) [Compound 30] | 80

Test system: wheat (Triticum aestivum)
Experiment: Test A postemergence, wheat
Type: in vivo
Settings: 125 g ai/ha, 0 to 100 scale
Summary of the method: as §1

SMILES | Plant response rating, Wheat
O=C1NCC(/C=C/c2cccc(F)c2)C1C(=O)Nc1cccc(F)c1F (stereo not drawn) [Compound 30] | 0

Same assay, conditions: 500 g ai/ha, 0 to 100 scale

SMILES | Plant response rating, Wheat
O=C1NCC(/C=C/c2cccc(F)c2)C1C(=O)Nc1cccc(F)c1F (stereo not drawn) [Compound 30] | 20

Test system: corn (Zea mays)
Experiment: Test A postemergence, corn
Type: in vivo
Settings: 125 g ai/ha, 0 to 100 scale
Summary of the method: as §1

SMILES | Plant response rating, Corn
O=C1NCC(/C=C/c2cccc(F)c2)C1C(=O)Nc1cccc(F)c1F (stereo not drawn) [Compound 30] | 0

Same assay, conditions: 500 g ai/ha, 0 to 100 scale

SMILES | Plant response rating, Corn
O=C1NCC(/C=C/c2cccc(F)c2)C1C(=O)Nc1cccc(F)c1F (stereo not drawn) [Compound 30] | 20

Test system: pigweed (Amaranthus retroflexus)
Experiment: Test A postemergence, pigweed
Type: in vivo
Settings: 125 g ai/ha, 0 to 100 scale
Summary of the method: as §1

SMILES | Plant response rating, Pigweed
O=C1NCC(/C=C/c2cccc(F)c2)C1C(=O)Nc1cccc(F)c1F (stereo not drawn) [Compound 30] | 0

Same assay, conditions: 500 g ai/ha, 0 to 100 scale

SMILES | Plant response rating, Pigweed
O=C1NCC(/C=C/c2cccc(F)c2)C1C(=O)Nc1cccc(F)c1F (stereo not drawn) [Compound 30] | 0

Test system: blackgrass (Alopecurus myosuroides)
Experiment: Test A postemergence, blackgrass
Type: in vivo
Settings: 125 g ai/ha, 0 to 100 scale
Summary of the method: as §1

SMILES | Plant response rating, Blackgrass
O=C1NCC(/C=C/c2cccc(F)c2)C1C(=O)Nc1cccc(F)c1F (stereo not drawn) [Compound 30] | 0

Same assay, conditions: 500 g ai/ha, 0 to 100 scale

SMILES | Plant response rating, Blackgrass
O=C1NCC(/C=C/c2cccc(F)c2)C1C(=O)Nc1cccc(F)c1F (stereo not drawn) [Compound 30] | 0

Test system: galium (catchweed bedstraw, Galium aparine)
Experiment: Test A postemergence, galium
Type: in vivo
Settings: 125 g ai/ha, 0 to 100 scale
Summary of the method: as §1

SMILES | Plant response rating, Galium
O=C1NCC(/C=C/c2cccc(F)c2)C1C(=O)Nc1cccc(F)c1F (stereo not drawn) [Compound 30] | 0

Same assay, conditions: 500 g ai/ha, 0 to 100 scale

SMILES | Plant response rating, Galium
O=C1NCC(/C=C/c2cccc(F)c2)C1C(=O)Nc1cccc(F)c1F (stereo not drawn) [Compound 30] | 20

Test system: barnyardgrass (Echinochloa crus-galli)
Experiment: Test B flooded paddy test, barnyardgrass
Type: in vivo
Settings: Flood, 250 g ai/ha; scale of 0 to 100 where 0 is no effect and 100 is complete control; 13 to 15 d
Summary of the method: (§2)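 Ratings use a 0-100 visual scale, where 100 is complete control, and compare treated plants with controls after 13 to 15 d of greenhouse growth. Compound went straight into paddy water kept 3 cm over the soil surface, applied to seedlings at the 2-leaf stage.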

SMILES | Plant response rating, Barnyardgrass
O=C1NCC(/C=C/c2cccc(F)c2)C1C(=O)Nc1cccc(F)c1F (stereo not drawn) [Compound 30] | 70

Test system: ducksalad (Heteranthera limosa)
Experiment: Test B flooded paddy test, ducksalad
Type: in vivo
Settings: Flood, 250 g ai/ha; scale of 0 to 100 where 0 is no effect and 100 is complete control; 13 to 15 d
Summary of the method: as §2

SMILES | Plant response rating, Ducksalad
O=C1NCC(/C=C/c2cccc(F)c2)C1C(=O)Nc1cccc(F)c1F (stereo not drawn) [Compound 30] | 95

Test system: rice (Oryza sativa)
Experiment: Test B flooded paddy test, rice
Type: in vivo
Settings: Flood, 250 g ai/ha; scale of 0 to 100 where 0 is no effect and 100 is complete control; 13 to 15 d
Summary of the method: as §2

SMILES | Plant response rating, Rice
O=C1NCC(/C=C/c2cccc(F)c2)C1C(=O)Nc1cccc(F)c1F (stereo not drawn) [Compound 30] | 15

Test system: sedge, umbrella (small-flower umbrella sedge, Cyperus difformis)
Experiment: Test B flooded paddy test, sedge, umbrella
Type: in vivo
Settings: Flood, 250 g ai/ha; scale of 0 to 100 where 0 is no effect and 100 is complete control; 13 to 15 d
Summary of the method: as §2

SMILES | Plant response rating, Sedge, Umbrella
O=C1NCC(/C=C/c2cccc(F)c2)C1C(=O)Nc1cccc(F)c1F (stereo not drawn) [Compound 30] | 0
